# Entries after “also recorded” stand apart in the source; their conditions may differ. Where two headings read alike, the source gives them in different places.
# Key:
# [1] = cited from earlier work; for mean Cmax increase per mg Δ^9-THC: continuous blood withdrawal
# [2] = PK study: plasma Δ^9-THC levels after single dose inhalation from cannabis flos with the metered-dose inhaler (MDI)
# Method: A study was conducted in order to characterize the inter-individual variability of Δ^9-THC plasma levels during the absorption phase, upon using a hand-held metered-dose MDI device configured for pulmonary delivering pre-determined amounts of the active agent Δ^9-THC from a solid substance (cannabis-derived plant substance) upon heating the substance.
# Routine medications were continued throughout the trial.
# chronic neuropathic pain = details: cited from earlier work; for reduction of pain intensity: Wilsey et al. 2013, vaporized 10.3 mg total available Δ^9-THC in two sessions
# [3] = Monitoring of adverse effects, blood pressure and heart rate after inhalation; assay type: in vivo, human
# Method: (§1) The study was used to further evaluate the pharmacodynamic effect of pulmonary delivery of Δ^9-THC on pain reduction from baseline using a 10 cm visual analog scale (VAS) pain scale (0 being no pain; and 10 being worst possible pain); for monitoring adverse effects, blood pressure and heart rate, and for estimating the degree of satisfaction with the use of the MDI on a 0-10 scale.
# (§2) Pain intensity reduction was assessed as a therapeutic effect by asking participants to indicate the intensity of their current pain on a 100 mm visual analog scale (VAS) between 0 (no pain) and 100 (worst possible pain) at baseline (prior to the inhalation) and at 20 and 90 minutes following the pulmonary delivery of the pharmaceutically active agent from cannabis. Adverse effects, in the form of psychotropic symptoms, were recorded at 5, 15, 30, 60 and 120 minutes post pulmonary delivery, along with those spontaneously reported by the participants. Adverse effects were evaluated according to standardized criteria in terms of severity, frequency, duration and relationship to the study's active agent. Adverse effects were graded using the NIH Division of AIDS table for scoring severity of adult adverse experiences. Blood pressure and pulse rate were also recorded before, during and after the pulmonary delivery.
# Results are reported herein as mean values±1 standard deviation (±SD). […]
# [4] = Analysis of residual cannabis material after vaporization in the MDI
# neuropathic pain = test: VAS pain intensity after pulmonary delivery of Δ^9-THC with the MDI; assay type: in vivo, human
# Method: as §1
# The study was conducted at the Pain Research Unit of Rambam Health Care Campus in Haifa, Israel.
# as §2
# Results are reported herein as mean values±1 standard deviation (±SD). For each one of the measured effects (VAS pain intensity, systolic and diastolic blood pressure, heart rate and satisfaction score), the mean and 95% confidence interval (CI) at different time points was plotted. Differences between VAS pain intensity values and satisfaction scores, before and after inhalation, were tested by two-tailed paired Student t-test. Blood pressure and heart rate values were compared among different time points by one-way ANOVA. P-values <0.05 were accepted as significant. All statistical analyses were performed using Minitab Statistical Software, version 16.
compound,measurement,setting,value
"CCCCCc1cc(O)c2c(c1)OC(C)(C)[C@@H]1CCC(C)=C[C@@H]21 [Δ^9-THC, Δ9-tetrahydrocannabinol]",mean Cmax increase per mg Δ^9-THC,[1]; after the first puff of a 1.75% Δ^9-THC cigarette,3.54 ng/ml per mg Δ^9-THC
same,mean Cmax increase per mg Δ^9-THC,[1]; after the first puff of a 3.55% Δ^9-THC cigarette,4.28 ng/ml per mg Δ^9-THC
same,plasma Cmax levels per mg of Δ^9-THC administered,[1]; intravenous administration (Ohlsson et al. 1980),43.8 ng Δ^9-THC/ml plasma
same,inter-individual variability of Cmax (coefficient of variation),[1]; oral administration,42-115%
same,inter-individual variability of Cmax (coefficient of variation),[1]; oromucosal route of delivery,59-67%
same,inter-individual variability of Cmax (coefficient of variation),[1]; smoking cigarettes,32-115%
same,inter-individual variability of Cmax (coefficient of variation),[1]; vaporizer (Abrams),47-85%
same,inter-individual variability of Cmax (coefficient of variation),[2]; MDI device,25.3%
same,AUC,"[2]; human, plasma, inhaled or intranasal, 3.08 mg, AUC (Mean), mean of 8 participants, same single dose inhalation",10.1 ng·h/mL
same,Cmax,"[2]; human, plasma, inhaled or intranasal, 3.08 mg, Cmax (Mean), mean of 8 participants, same single dose inhalation",38 ng/mL
same,Tmax,"[2]; human, plasma, inhaled or intranasal, 3.08 mg, Tmax (Mean), mean of 8 participants, same single dose inhalation",3 min
same,AUC(0-inf),"[2]; human, plasma, inhaled, 3.08 mg",10.1 ng·h/mL
same,time of first detection in blood sample,"[2]; post-inhalation, six patients without residual plasma THC at baseline",1 min
same,increase of Cmax per mg of Δ^9-THC available in the cannabis used (mean),[2]; pulmonary delivery method described herein (MDI),12.3 ng/ml/mg Δ^9-THC
same,plasma concentration profile over time,[2]; pulmonary delivery with the MDI,"rapid absorption, followed by bi-phasic decline in plasma concentration over time"
same,mean Cmax elevation,"chronic neuropathic pain; Ware et al. 2010, single smoke inhalation of 25±1 mg cannabis, 9.4% Δ^9-THC, three times a day for 5 days",45 ng/mL
same,"reduction of neuropathic pain (plateau, ceiling effect)","chronic neuropathic pain; Wilsey et al. 2008, smoking 19 mg or 34 mg total available Δ^9-THC in 3 doses",45%
same,reduction of pain intensity,chronic neuropathic pain; 3 hours,31%
same,reduction of pain intensity,chronic neuropathic pain; 5 hours,25%
same,time to full recovery from light headedness,"[3]; all the other patients, post-inhalation",≤ 30 min
same,adverse effects (overall),"[3]; single dose inhalation with MDI, listed as THC","minimal, reversible and well tolerated; also recorded: minimal, reversible and receded rapidly"
same,cannabinol (product of THC oxidation) in residues,[4],no increase of cannabinol
same,decrease of VAS pain intensity from baseline,"neuropathic pain; 20 minutes after inhalation, baseline 7.5±1.4, 95% CI [2.1, 4.9], P=0.001",3.4 points
same,VAS pain intensity versus baseline,neuropathic pain; 90 minutes post-dosing,virtually identical results as at baseline
same,time to reversal of pain reduction,"neuropathic pain; single inhalation, 3.08±0.02 mg total available Δ^9-THC",≤ 90 min
